We go through 19 compounds from ChEMBL document CHEMBL4393657, “Tetrazole hybrids and their antifungal activities” (2019).

For orientation: MIC means the least concentration at which growth counts as inhibited.

Converted amounts (≈) assume the structure as drawn. Some results are limits rather than exact numbers.

What all share (assay type): functional
One assay relates to Mucor indicus. The assay can be described thus: Antifungal activity against Mucor indicus.
Assay [1] deals with Candida albicans. The assay can be described thus: Antifungal activity against Candida albicans.
A further assay deals with Rhizopus arrhizus. As to the kind of experiment: Antifungal activity against Rhizopus arrhizus.
Assay [2] has as its system Aspergillus flavus. The assay can be described thus: Antifungal activity against Aspergillus flavus.
Assay [3] relates to Aspergillus niger. The assay can be described thus: Antifungal activity against Aspergillus niger.
The subject of assay [4] is Candida tropicalis. As to the kind of experiment: Antifungal activity against Candida tropicalis NCIM 3110 assessed as reduction in fungal cell growth incubated for 48 hrs by broth microdilution method. To be noted: NCIM 3110, 48 h. A general note: Dilution methods test growth across graded concentrations, often in twofold steps.
In assay [5] the test system is Candida tropicalis. As to the kind of experiment: Potency index, ratio for MIC of fluconazole to MIC of compound for Antifungal activity against Candida tropicalis NCIM 3110 assessed as reduction in fungal cell growth incubated for 24 hrs by broth microdilution method.
For assay [6], the system named is Nakaseomyces glabratus. As to the kind of experiment: Antifungal activity against Candida glabrata NCIM 3236 assessed as reduction in fungal cell growth incubated for 24 hrs by broth microdilution method. The settings on record: NCIM 3236, 24 h.
Assay [7] relates to Candida albicans. As to the kind of experiment: Antifungal activity against Candida albicans MTCC 227 assessed as reduction in fungal cell growth incubated for 24 hrs by broth microdilution method. The settings on record: MTCC 227, 24 h.
Assay [8] has as its system Nakaseomyces glabratus. The assay can be described thus: Potency index, ratio for MIC of fluconazole to MIC of compound for antifungal activity against Candida glabrata NCIM 3236 assessed as reduction in fungal cell growth incubated for 24 hrs by broth microdilution method.
Assay [9] has as its system Aspergillus niger. The assay can be described thus: Antifungal activity against Aspergillus niger NCCS 1196 assessed as inhibition zone at 500 ug/ml by disk diffusion method. The settings on record: read-out: IZ. (Agar diffusion results depend on both activity and mobility in agar.)
In assay [10] the test system is Candida albicans. As to the kind of experiment: Antifungal activity against Candida albicans NCCS 3471 assessed as inhibition zone at 500 ug/ml by disk diffusion method. The settings on record: read-out: IZ.
For assay [11], the system named is Candida albicans. The assay can be described thus: Antifungal activity against Candida albicans assessed as reduction in fungal cell growth incubated for 24 hrs by broth microdilution method.
The subject of another assay is Aspergillus fumigatus. As to the kind of experiment: Antifungal activity against Aspergillus fumigatus assessed as inhibition zone at 25 ug/ml by disk diffusion method. To be noted: read-out: IZ.
Assay [12] has as its system Aspergillus niger. The assay can be described thus: Antifungal activity against Aspergillus niger assessed as inhibition zone at 25 ug/ml by disk diffusion method. The settings on record: read-out: IZ.
Assay [13] has as its system Aspergillus flavus. The assay can be described thus: Antifungal activity against Aspergillus flavus assessed as inhibition zone at 25 ug/ml by disk diffusion method. To be noted: read-out: IZ.
For assay [14], the system named is Candida albicans. The assay can be described thus: Antifungal activity against Candida albicans assessed as inhibition zone at 25 ug/ml by disk diffusion method. To be noted: read-out: IZ.
The test system of assay [15] is Aspergillus niger. As to the kind of experiment: Antifungal activity against Aspergillus niger assessed as reduction in fungal cell growth incubated for 48 hrs by broth microdilution method.
Assay [16] relates to Candida albicans. The assay can be described thus: Antifungal activity against Candida albicans assessed as reduction in fungal cell growth incubated for 48 hrs by broth microdilution method.

As to `O=C(O)c1cn(C2CC2)c2nc(N3CCN(CC(=O)c4nnnn4-c4ccc(Cl)cc4)CC3)c(F)cc2c1=O`, the MIC in the assay with Mucor indicus, against Candida albicans [1], with Rhizopus arrhizus, in the assay with Aspergillus flavus [2] and against Aspergillus niger [3] was 6.25 to 100 µg/mL (≈ 11.3 to 181 µM) each time.

`O=c1c(OCc2nnn[nH]2)c(-c2ccc(F)cc2)oc2ccccc12`: the results for the MIC in the assay with Candida tropicalis [4], with Nakaseomyces glabratus [6] and with Candida albicans [7] were 12.5 to 50 µg/mL (≈ 36.9 to 148 µM), 12.5 to 50 µg/mL (≈ 36.9 to 148 µM) and 12.5 to 25 µg/mL (≈ 36.9 to 73.9 µM), respectively. For the same compound, the Ratio in the assay with Candida tropicalis [5] and with Nakaseomyces glabratus [8] was 16 - 64 each time.

As to `CC(=O)N1N=C(Cn2cc(-c3nn(-c4ccncc4)cc3-c3nnnn3-c3ccc(C(F)(F)F)cc3)c3cc(Cl)ccc32)OC1(C)c1ccccc1` (stereo unspecified), the zone of inhibition at 500 µg/mL in the assay on Aspergillus niger [9] and in the assay with Candida albicans [10] was 11 to 20 mm throughout.

As for `C[C@@H]1[C@H](O)[C@@H](C)/C=C/C=C/C=C/C=C/C=C/C=C/C=C/[C@H](O[C@@H]2O[C@H](C)[C@@H](O)[C@H](N)[C@@H]2O)C[C@@H]2O[C@](O)(C[C@@H](O)C[C@@H](O)[C@H](O)CC[C@@H](O)C[C@@H](O)CC(=O)O[C@H]1C)C[C@H](O)[C@H]2C(=O)O` [AMPHOTERICIN B], the minimum inhibitory concentration (MIC) in the assay with Candida albicans [11] is under 0.48 µg/mL.

Consider `Cc1ccc2oc(-c3ccc(F)cc3)c(OCc3nnn[nH]3)c(=O)c2c1`, for which the MIC in the assay with Candida tropicalis [4], in the assay with Nakaseomyces glabratus [6] and in the assay on Candida albicans [7] was 12.5 to 50 µg/mL (≈ 35.5 to 142 µM) throughout. The Ratio in the assay with Candida tropicalis [5] and in the assay with Nakaseomyces glabratus [8] was 8 - 64 in each case.

As to `Clc1ccc(OCc2cn(Cc3ccc(-c4ccccc4-c4nnn[nH]4)cc3)nn2)cc1`, the zone of inhibition at 25 µg/mL with Aspergillus fumigatus, with Aspergillus niger [12], in the assay on Aspergillus flavus [13] and in the assay with Candida albicans [14] was 11 to 18 mm each time.

On to `CC(=O)N1N=C(Cn2cc(-c3nn(-c4ccncc4)cc3-c3nnnn3-c3ccc(C(F)(F)F)cc3)c3cc(Cl)ccc32)OC1(C)c1ccc(Br)cc1` (stereo unspecified), for which the zone of inhibition at 500 µg/mL with Aspergillus niger [9] and in the assay on Candida albicans [10] was 11 to 20 mm throughout.

`S=c1[nH]c2c(c3nnnn13)C(c1ccc(Cl)cc1)c1ccc3ccccc3c1O2` (stereo unspecified): the minimal inhibitory concentration (MIC) with Aspergillus niger [15] and with Candida albicans [16] was 50 to 400 µg/mL (≈ 120 to 957 µM) each time.

Take `COc1ccc(C2c3ccc4ccccc4c3Oc3[nH]c(=S)n4nnnc4c32)cc1` (stereo unspecified): the MIC with Aspergillus niger [15] and with Candida albicans [16] was 50 to 400 µg/mL (≈ 121 to 967 µM) in each case.

With `CC(=O)N1N=C(Cn2cc(-c3nn(-c4ccncc4)cc3-c3nnnn3-c3ccc(C(F)(F)F)cc3)c3cc(Cl)ccc32)OC1(C)c1ccc([N+](=O)[O-])cc1` (stereo unspecified), the zone of inhibition at 500 µg/mL in the assay on Aspergillus niger [9] and in the assay with Candida albicans [10] was 11 to 20 mm throughout.

For `O=C(O)c1cn(C2CC2)c2nc(N3CCN(CC(=O)c4nnnn4-c4ccc(Br)cc4)CC3)c(F)cc2c1=O`, the minimum inhibitory concentration (MIC) in the assay on Mucor indicus, in the assay with Candida albicans [1], in the assay with Rhizopus arrhizus, against Aspergillus flavus [2] and with Aspergillus niger [3] was 6.25 to 100 µg/mL (≈ 10.5 to 167 µM) in each case.

For the compound `O=c1c(OCc2nnn[nH]2)c(-c2ccc(F)cc2)oc2ccc(Cl)cc12`, the MIC in the assay with Candida tropicalis [4] fell in the range of 12.5 to 50 µg/mL (≈ 33.5 to 134 µM); in the assay with Nakaseomyces glabratus [6] it was 12.5 to 50 µg/mL (≈ 33.5 to 134 µM); with Candida albicans [7], 12.5 to 25 µg/mL (≈ 33.5 to 67.1 µM). The Ratio with Candida tropicalis [5] and with Nakaseomyces glabratus [8] was 16 - 64 in each case.

Turning to `Cc1ccccc1OCc1cn(Cc2ccc(-c3ccccc3-c3nnn[nH]3)cc2)nn1`, the zone of inhibition at 25 µg/mL with Aspergillus fumigatus, in the assay on Aspergillus niger [12], in the assay on Aspergillus flavus [13] and with Candida albicans [14] was 11 to 18 mm throughout.

Turning to `O=c1c(OCc2nnn[nH]2)c(-c2ccc(F)cc2)oc2c(Cl)cc(Cl)cc12`, the MIC in the assay on Candida tropicalis [4], in the assay with Nakaseomyces glabratus [6] and with Candida albicans [7] was 12.5 to 50 µg/mL (≈ 30.7 to 123 µM) in each case. For the same compound, the Ratio in the assay with Candida tropicalis [5] and in the assay with Nakaseomyces glabratus [8] was 8 - 64 each time.

For the compound `Clc1ccccc1OCc1cn(Cc2ccc(-c3ccccc3-c3nnn[nH]3)cc2)nn1`, the zone of inhibition at 25 µg/mL in the assay with Aspergillus fumigatus, with Aspergillus niger [12], in the assay on Aspergillus flavus [13] and in the assay with Candida albicans [14] was 11 to 18 mm each time.

Consider `S=c1[nH]c2c(c3nnnn13)C(c1ccccc1)c1ccc3ccccc3c1O2` (stereo unspecified), for which the MIC with Aspergillus niger [15] and in the assay on Candida albicans [16] was 50 to 400 µg/mL (≈ 130 to 1040 µM) each time.

Turning to `Cc1ccc(-n2nnnc2C(=O)CN2CCN(c3nc4c(cc3F)c(=O)c(C(=O)O)cn4C3CC3)CC2)cc1`, the minimum inhibitory concentration (MIC) against Mucor indicus, in the assay on Candida albicans [1], in the assay with Rhizopus arrhizus, against Aspergillus flavus [2] and in the assay on Aspergillus niger [3] was 6.25 to 100 µg/mL (≈ 11.7 to 188 µM) each time.

For `CC(=O)N1N=C(Cn2cc(-c3nn(-c4ccncc4)cc3-c3nnnn3-c3ccc(C(F)(F)F)cc3)c3cc(Cl)ccc32)OC1(C)c1ccc(C)cc1` (stereo unspecified), the zone of inhibition at 500 µg/mL in the assay on Aspergillus niger [9] and in the assay with Candida albicans [10] was 11 to 20 mm each time.

With `Cc1cccc(OCc2cn(Cc3ccc(-c4ccccc4-c4nnn[nH]4)cc3)nn2)c1`, the zone of inhibition at 25 µg/mL with Aspergillus fumigatus, with Aspergillus niger [12], in the assay with Aspergillus flavus [13] and with Candida albicans [14] was 11 to 18 mm each time.
